What was measured:
HUVECs = assay: VEGF-induced chemotactic cell migration (transwell chamber); format: cell-based, human; conditions: VEGF 10 ng/ml, test substance 0.1, 1, 10, 100 nM, 3 hours
Protocol: The experiment was conducted by dividing the groups into an untreated group, a group treated with VEGF alone, and a group co-treated with VEGF and the test substance (SE101B2L).
In addition, whether the test substance could inhibit VEGF-induced changes in cell migration ability in HUVECs was confirmed. In terms of cell migration ability, changes in chemotactic cell migration were confirmed using a transwell chamber (24-well plate type). After coating the lower surface of a transwell insert membrane having a diameter of 6.5 mm and a pore size of 8.0 µm with 10 µg of gelatin, 5 × 10^4 cultured HUVECs were seeded into the inserts using 0.1 ml of HUVEC basal medium. The test substance was added to each test substance-treated group to final concentrations of 0.1, 1, 10, and 100 nM, and VEGF, together with HUVEC basal medium, was added to the lower wells configured in a 24-well plate format to a final concentration of 10 ng/ml, followed by incubation in an incubator with 5% CO2 at 37°C for 3 hours. Thereafter, the medium was removed from the inserts of the test groups, and the inserts were fixed using a 10% formalin solution. […] Migrated cells in each test group were photographed, and the number of cells was counted. The number of counted cells was converted to values relative to that of the untreated group, thereby calculating the results.

VE-cadherin and ZO-1 = assay: Expression levels and patterns of junctional proteins (immunofluorescence); format: cell-based, human; conditions: HUVECs; VEGF 50 ng/mL, 90 minutes; test substance 10 and 100 nM
From the text: Whether the test substance (SE101B2L) could regulate changes in permeability caused by VEGF-induced changes in membrane protein stability of vascular endothelial cells was confirmed. Expression levels and patterns of VE-cadherin and ZO-1, which are junctional proteins associated with vascular stability and permeability and connect cells to one another, were confirmed. One circular coverslip having a diameter of 12 mm was placed in each well of a 24-well plate, and gelatin was applied using a 2% gelatin solution to facilitate cell attachment. Into the prepared wells, 1 × 10^5 HUVECs were seeded per well. The cells were cultured in an incubator with 5% CO2 at 37°C for 4 days, with the growth medium replaced every other day. After confirming that the cells had become completely confluent, the cells were incubated for 1 hour using serum-free CEFOgro-HUVEC medium. At this time, the test substance was added to the corresponding wells to final concentrations of 10 and 100 nM. Upon completion of the incubation, VEGF at a final concentration of 50 ng/mL was added, followed by incubation for an additional 90 minutes. The incubated samples were fixed at room temperature for 15 minutes using a 10% formalin solution. […] The corresponding samples were photographed under a fluorescence microscope.

ARPE19 cells [1] = assay: Cell viability under hydrogen peroxide-induced oxidative stress (CCK-8); format: cell-based, Human; conditions: 400 µM hydrogen peroxide, test substance 0.01, 0.1, 1, 2 µM, 24 hours
Protocol: (§1) Human retinal pigment epithelial cells (ARPE19) were cultured in a humidified incubator with 5% CO2 at 37°C. DMEM/F12 (Gibco) containing 10% fetal bovine serum and penicillin (100 U/ml)/streptomycin ([…]) was used as medium. The cells were cultured with the medium replaced with fresh medium every other day and were passaged using 0.25% trypsin containing 0.02% ethylenediaminetetraacetic acid (EDTA).
After oxidative stress was induced in human retinal pigment epithelial cells using hydrogen peroxide (H2O2), the test substance (SE101B2L) was added at varying concentrations to confirm changes in cell viability. CCK-8 was used to confirm cell viability.
ARPE19 cells were seeded into a 96-well plate at 1 × 10^4 cells/well and cultured in an incubator for 24 hours. The test substance was added to each treatment group at concentrations of 0, 0.01, 0.1, 1, and 2 µM, together with 400 µM hydrogen peroxide, followed by incubation for 24 hours. […] After incubation, a 96-well plate containing 90 µL of cell suspension per well was inoculated with 10 µL of ready-to-use CCK-8 solution. The plate was incubated for 2 hours, and the OD450 of the supernatant was measured to confirm cell viability through quantification.

ARPE19 cells [2] = assay: Hydrogen peroxide-induced apoptosis (phosphatidylserine / CytoCalcein Violet 450 staining); format: cell-based, Human; conditions: 200 µM hydrogen peroxide, test substance 0.01, 0.1, 1 µM, 24 hours
Protocol: as §1
After apoptosis was induced in ARPE19 cells using hydrogen peroxide (H2O2), the test substance (SE101B2L) was added at varying concentrations to evaluate inhibitory effects against apoptosis. Inhibitory effects against apoptosis were measured using phosphatidylserine (PS), which is exposed on the surface of apoptotic cells.
ARPE19 cells were seeded into a 24-well microplate containing coverslips at 1 × 10^6 cells/well and cultured in an incubator with 5% CO2 at 37°C for 24 hours. When approximately 80% confluency was reached, the test substance was added to each treatment group at concentrations of 0, 0.01, 0.1, and 1 µM, together with 200 µM hydrogen peroxide, followed by incubation for 24 hours. […] Emission signals detected from each cell were measured using a digital fluorescence microscope (CELENA S digital imaging system, Logos Biosystems, Korea) to quantify apoptotic cells and live cells.

Substance: decylbenzoyl-Cys-Phe-Lys-amide [SE101B2L]
- cell migration ability (number of migrated cells) (HUVECs): reduced by the test substance in a concentration-dependent manner
- expression levels and patterns of junctional proteins between cells (VE-cadherin, ZO-1) (VE-cadherin and ZO-1): appear similarly to those of the untreated group in a concentration-dependent manner
- cell viability (ARPE19 cells [1]): increases cell viability in a concentration-dependent manner
- apoptotic cells (green) (ARPE19 cells [2]): apoptotic cells (green) decrease
- live cells (blue) (ARPE19 cells [2]): live cells (blue) increase in a concentration-dependent manner

From patent EP4813999A1, “NOVEL PEPTIDE DERIVATIVE AND PHARMACEUTICAL COMPOSITION FOR PREVENTING OR TREATING MACULAR DEGENERATION COMPRISING SAME” (Supadelixir Inc., priority 2023, dated 2026)
